Measured values published in BindingDB's records for doi:10.1021/jm030505a (Abbott Laboratories, 2004).

Tests used:
[1] = In vitro effective concentration tested on HEK293 cells co-transfected with ferret Dopamine receptor D4 using FLIPR assay
[2] = In vitro effective concentration tested on HEK293 cells co-transfected with ferret Dopamine receptor D2 using FLIPR assay

Row | SMILES | EC50 [1] [nM] | EC50 [2] [nM]
1 | c1ccc(N2CCN(Cc3nc4ccccc4[nH]3)CC2)nc1 [2-((4-(pyridin-2-yl)piperazin-1-yl)methyl)-1H-benzo[d]imidazole] | 23.2 | 
2 | NCCc1ccc(O)c(O)c1 | 2.7 | 
3 | Fc1ccc2[nH]c(CN3CCN(c4ccccn4)CC3)cc2c1 [5-Fluoro-2-(4-pyridin-2-yl-piperazin-1-ylmethyl)-1H-indole] | 22 | 527
4 | CN1CCc2cccc3c2[C@H]1Cc1ccc(O)c(O)c1-3 [APOKYN] | 1.5 | 
